In patent US10414811B2, “Protease-resistant lipidated GLP-1 analogs” (MEDIMMUNE LIMITED, priority 2015, dated 2019):
Read-outs that look alike come from different tables or passages of the source. Numbered stars: 1 amine (or outer) side, 2 acyl side, 3 side chain; on linkers, the order of the positions; unused ones are H or OH. Square brackets hold non-standard residues; d marks the D form. Side chains are listed from the residue outwards. Peptide text beside a SMILES is read from it. * marks the point of attachment. γGlu = O=C(O)[C@H](CCC(=O)[*:2])N[*:1]; αMeF = C[C@](N)(Cc1ccccc1)C(=O)O; αMeK = C[C@](N)(CCCCN)C(=O)O; Lauroyl = CCCCCCCCCCCC(=O)*; αMeS = C[C@](N)(CO)C(=O)O; AEEA = NCCOCCOCC(=O)O; Aib = CC(C)(N)C(=O)O

Experiments:
Assay type in all cases: cell-based
[1] = molecular target: T1, human GLP-1 receptor (GLP-1R) (Homo sapiens, UniProt P43220); test: cAMP assay, human GLP-1R cells
T1 construct: expressed in transfected cells
In short: (§1)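 Peptide-stimulated cAMP measured by two-step HTRF after a 30 min room-temperature incubation with receptor-expressing cells (hGLP-1R, hGIPR at 1×10^5 cells/ml; hGCGR at 2×10^5 cells/ml). Duplicate dilutions; EC50 from 4-parameter logistic fit of % Delta F.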

[2] = molecular target: T2, human glucagon receptor (GCGR) (Homo sapiens, UniProt P47871); test: cAMP assay, human GCGR cells
T2 construct: expressed in transfected cells
In short: as §1

[3] = molecular target: T3, human glucose-dependent insulinotropic peptide receptor (GIPR) (Homo sapiens, UniProt P48546); test: cAMP assay, human GIPR cells
T3 construct: expressed in transfected cells
T3 sequence (P48546 22-466): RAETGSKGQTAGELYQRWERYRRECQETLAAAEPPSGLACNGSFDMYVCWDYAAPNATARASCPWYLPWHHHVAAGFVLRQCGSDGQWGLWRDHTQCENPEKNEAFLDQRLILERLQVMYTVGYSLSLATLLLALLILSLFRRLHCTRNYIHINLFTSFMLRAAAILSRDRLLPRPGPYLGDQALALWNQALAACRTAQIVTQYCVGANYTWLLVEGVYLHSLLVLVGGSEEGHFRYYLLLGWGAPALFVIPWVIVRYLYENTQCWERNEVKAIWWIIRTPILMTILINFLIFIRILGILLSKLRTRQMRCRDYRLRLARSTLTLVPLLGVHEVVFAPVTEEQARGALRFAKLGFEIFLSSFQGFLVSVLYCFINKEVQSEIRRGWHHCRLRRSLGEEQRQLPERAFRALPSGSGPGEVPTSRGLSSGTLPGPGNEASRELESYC
In short: as §1

[4] = tris-lipidated peptides, mean of n1 and n2, read-out: Primary assay EC50 Mean pM GLP-1R
[5] = tris-lipidated peptides, replicate n1, read-out: Primary assay EC50 GLP-1R n1
[6] = tris-lipidated peptides, replicate n2, read-out: Primary assay EC50 GLP-1R n2
[7] = tris-lipidated peptides, first replicate, read-out: Primary assay EC50 GIP-R (n1)
[8] = cAMP assay, first determination (n1), read-out: Primary assay EC50 GLP-1R n1
[9] = cAMP assay, second determination (n2), read-out: Primary assay EC50 GLP-1R n2
[10] = mean of n1 and n2, read-out: Mean pM GLP-1R
[11] = cAMP assay, first determination (n1), read-out: Primary assay EC50 Gluc-R (n1)
[12] = cAMP assay, second determination (n2), read-out: Primary assay EC50 Gluc-R (n2)
[13] = cAMP assay, first determination (n1), read-out: Primary assay EC50 GIP-R (n1)
[14] = cAMP assay, second determination (n2), read-out: Primary assay EC50 GIP-R (n2)

T2 sequence (P47871 26-477): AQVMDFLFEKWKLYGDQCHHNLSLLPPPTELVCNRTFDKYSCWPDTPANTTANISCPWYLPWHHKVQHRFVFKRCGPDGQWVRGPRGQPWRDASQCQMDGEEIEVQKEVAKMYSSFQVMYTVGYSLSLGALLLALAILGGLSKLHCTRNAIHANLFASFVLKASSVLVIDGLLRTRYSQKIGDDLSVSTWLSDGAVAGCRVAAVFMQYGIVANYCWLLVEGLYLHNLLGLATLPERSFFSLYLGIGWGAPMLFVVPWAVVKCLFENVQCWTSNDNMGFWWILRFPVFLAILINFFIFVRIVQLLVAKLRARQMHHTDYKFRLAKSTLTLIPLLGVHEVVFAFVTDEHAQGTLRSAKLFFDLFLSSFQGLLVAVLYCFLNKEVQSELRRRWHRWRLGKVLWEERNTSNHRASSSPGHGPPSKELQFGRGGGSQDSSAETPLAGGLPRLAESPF
T1 sequence (P43220 24-463): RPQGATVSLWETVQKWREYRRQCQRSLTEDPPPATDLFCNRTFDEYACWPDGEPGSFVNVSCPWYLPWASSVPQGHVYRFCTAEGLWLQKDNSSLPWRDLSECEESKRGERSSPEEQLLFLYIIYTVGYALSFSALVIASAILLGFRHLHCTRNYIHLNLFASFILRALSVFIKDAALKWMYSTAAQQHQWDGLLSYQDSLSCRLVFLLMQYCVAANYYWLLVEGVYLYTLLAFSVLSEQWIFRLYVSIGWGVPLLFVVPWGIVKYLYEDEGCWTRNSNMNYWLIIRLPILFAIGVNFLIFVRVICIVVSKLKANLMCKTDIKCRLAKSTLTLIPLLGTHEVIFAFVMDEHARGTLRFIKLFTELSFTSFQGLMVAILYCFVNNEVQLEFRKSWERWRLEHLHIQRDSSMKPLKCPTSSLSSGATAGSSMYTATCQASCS

Row | SMILES | EC50 [1, 4] [pM] | EC50 [1, 5] [pM] | EC50 [1, 6] [pM] | EC50 ([2]; tris-lipidated peptides, first replicate, read-out: Primary assay EC50 Gluc-R (n1)) [nM] | EC50 [3, 7] [nM] | EC50 [1, 8] [pM] | EC50 [1, 9] [pM] | EC50 [1, 10] [pM] | EC50 [2, 11] [nM] | EC50 [2, 12] [nM] | EC50 [3, 13] [nM] | EC50 [3, 14] [nM] | EC50 ([2]; tris-lipidated peptides, second replicate, read-out: Primary assay EC50 Gluc-R (n2)) [nM] | EC50 ([1]; first run (n1), cAMP activity, read-out: Primary assay EC50 GLP-1R n1) [pM] | EC50 ([1]; second run (n2), cAMP activity, read-out: Primary assay EC50 GLP-1R n2) [pM] | EC50 ([2]; first run (n1), cAMP activity of substituted and mono-lipidated peptides, read-out: Primary assay EC50 Gluc-R) [nM] | EC50 ([3]; first run (n1), cAMP activity, read-out: Primary assay EC50 GIP-R) [nM]
1 | CCCCCCCCCCCC(=O)N[C@@H](CCC(=O)NCCOCCOCC(=O)NCCOCCOCC(=O)NCCCC[C@H](NC(=O)[C@H](CCC(=O)O)NC(=O)[C@H](CC(C)C)NC(=O)[C@H](CCCCNC(=O)COCCOCCNC(=O)COCCOCCNC(=O)CC[C@H](NC(=O)CCCCCCCCCCC)C(=O)O)NC(=O)[C@H](CO)NC(=O)[C@](C)(CO)NC(=O)[C@@H](NC(=O)[C@H](CC(=O)O)NC(=O)[C@H](CO)NC(=O)[C@@H](NC(=O)[C@](C)(Cc1ccccc1)NC(=O)[C@H](CO)NC(=O)CNC(=O)[C@H](CCC(=O)O)NC(=O)C(C)(C)NC(=O)[C@@H](N)Cc1c[nH]cn1)[C@@H](C)O)C(C)C)C(=O)N[C@@H](CCC(=O)O)C(=O)N[C@@H](C)C(=O)N[C@@H](C)C(=O)N[C@@](C)(CCCCN)C(=O)N[C@@H](CCC(=O)O)C(=O)N[C@@H](Cc1ccccc1)C(=O)N[C@H](C(=O)N[C@@H](CCCCNC(=O)COCCOCCNC(=O)COCCOCCNC(=O)CC[C@H](NC(=O)CCCCCCCCCCC)C(=O)O)C(=O)N[C@@H](Cc1ccccc1)C(=O)N[C@H](C(=O)N[C@H](C(=O)N[C@@H](CCC(=O)O)C(=O)NCC(=O)NCC(N)=O)C(C)C)C(C)C)[C@@H](C)CC)C(=O)O [compound 447] (H-H[Aib]EGS[αMeF]TSDV[αMeS]SK([AEEA-AEEA-γGlu-Lauroyl])LEK([AEEA-AEEA-γGlu-Lauroyl])EAA[αMeK]EFIK([AEEA-AEEA-γGlu-Lauroyl])FVVEGG-NH2; N-terminus assumed) | 150 | 123 | 176 | 19.7 | 19.7 | – | – | – | – | – | – | – | – | – | – | – | –
2 | CCCCCCCCCCCCCCCC(=O)N[C@@H](CCC(=O)NCCCC[C@H](NC(=O)[C@H](C)NC(=O)[C@H](C)NC(=O)[C@H](CCC(=O)O)NC(=O)CNC(=O)[C@H](CCC(=O)O)NC(=O)[C@H](CC(C)C)NC(=O)[C@](C)(Cc1ccccc1)NC(=O)[C@H](CO)NC(=O)[C@](C)(CO)NC(=O)[C@@H](NC(=O)[C@H](CC(=O)O)NC(=O)[C@H](CO)NC(=O)[C@@H](NC(=O)[C@](C)(Cc1ccccc1)NC(=O)[C@H](CO)NC(=O)CNC(=O)[C@H](CCC(=O)O)NC(=O)C(C)(C)NC(=O)[C@@H](N)Cc1c[nH]cn1)[C@@H](C)O)C(C)C)C(=O)N[C@@H](CCC(=O)O)C(=O)N[C@@](C)(Cc1ccccc1)C(=O)N[C@H](C(=O)N[C@@H](C)C(=O)N[C@@](C)(Cc1ccccc1)C(=O)N[C@H](C(=O)N[C@H](C(=O)N[C@@](C)(CCCCN)C(=O)NCC(=O)NCC(N)=O)C(C)C)C(C)C)[C@@H](C)CC)C(=O)O [compound 34] | – | – | – | – | – | 39 | 48 | 43 | ≥ 93 | ≥ 93 | ≥ 93 | ≥ 93 | – | – | – | – | –
3 | CCCCCCCCCCCCCCCCCC(=O)N[C@@H](CCC(=O)NCCCC[C@H](NC(=O)[C@@H](NC(=O)[C@@H](NC(=O)[C@](C)(Cc1ccccc1)NC(=O)[C@H](C)NC(=O)[C@@H](NC(=O)[C@](C)(Cc1ccccc1)NC(=O)[C@H](CCC(=O)O)NC(=O)[C@](C)(CCCCN)NC(=O)[C@H](C)NC(=O)[C@H](C)NC(=O)[C@H](CCC(=O)O)NC(=O)CNC(=O)[C@H](CCC(=O)O)NC(=O)[C@H](CC(C)C)NC(=O)[C@](C)(Cc1ccccc1)NC(=O)[C@H](CO)NC(=O)[C@](C)(CO)NC(=O)[C@@H](NC(=O)[C@H](CC(=O)O)NC(=O)[C@H](CO)NC(=O)[C@@H](NC(=O)[C@](C)(Cc1ccccc1)NC(=O)[C@H](CO)NC(=O)CNC(=O)[C@H](CCC(=O)O)NC(=O)C(C)(C)NC(=O)[C@@H](N)Cc1c[nH]cn1)[C@@H](C)O)C(C)C)[C@@H](C)CC)C(C)C)C(C)C)C(=O)NCC(=O)NCC(N)=O)C(=O)O [compound 182] | – | – | – | – | – | 130 | 52 | 89.9 | ≥ 28 | ≥ 28 | ≥ 28 | ≥ 28 | – | – | – | – | –
4 | CCCCCCCCCCCC(=O)NCCCCCC(=O)NCCCC[C@H](NC(=O)[C@@H](NC(=O)[C@@H](NC(=O)[C@](C)(Cc1ccccc1)NC(=O)[C@H](C)NC(=O)[C@@H](NC(=O)[C@](C)(Cc1ccccc1)NC(=O)[C@H](CCC(=O)O)NC(=O)[C@](C)(CCCCN)NC(=O)[C@H](C)NC(=O)[C@H](C)NC(=O)[C@H](CCC(=O)O)NC(=O)CNC(=O)[C@H](CCC(=O)O)NC(=O)[C@H](CC(C)C)NC(=O)[C@](C)(Cc1ccccc1)NC(=O)[C@H](CO)NC(=O)[C@](C)(CO)NC(=O)[C@@H](NC(=O)[C@H](CC(=O)O)NC(=O)[C@H](CO)NC(=O)[C@@H](NC(=O)[C@](C)(Cc1ccccc1)NC(=O)[C@H](CO)NC(=O)CNC(=O)[C@H](CCC(=O)O)NC(=O)C(C)(C)NC(=O)[C@@H](N)Cc1c[nH]cn1)[C@@H](C)O)C(C)C)[C@@H](C)CC)C(C)C)C(C)C)C(=O)NCC(=O)NCC(N)=O [compound 167] | – | – | – | – | – | 13 | 6.9 | 10 | ≥ 29 | ≥ 29 | ≥ 29 | ≥ 29 | – | – | – | – | –
5 | CCCCCCCCCCCC(=O)N[C@@H](CCC(=O)NCCOCCOCC(=O)NCCOCCOCC(=O)NCCCC[C@H](NC(=O)[C@H](CC(=O)O)NC(=O)[C@H](CO)NC(=O)[C@@H](NC(=O)[C@](C)(Cc1ccccc1)NC(=O)[C@H](CO)NC(=O)CNC(=O)[C@H](CCC(=O)O)NC(=O)C(C)(C)NC(=O)[C@@H](N)Cc1c[nH]cn1)[C@@H](C)O)C(=O)N[C@@H](CO)C(=O)N[C@@H](CO)C(=O)N[C@@H](Cc1ccc(O)cc1)C(=O)N[C@@H](CC(C)C)C(=O)N[C@@H](CCC(=O)O)C(=O)NCC(=O)N[C@@H](CCC(=O)O)C(=O)N[C@@H](C)C(=O)N[C@@H](C)C(=O)N[C@@](C)(CCCCN)C(=O)N[C@@H](CCCCNC(=O)COCCOCCNC(=O)COCCOCCNC(=O)CC[C@H](NC(=O)CCCCCCCCCCC)C(=O)O)C(=O)N[C@@H](Cc1ccccc1)C(=O)N[C@H](C(=O)N[C@@H](CCCCNC(=O)COCCOCCNC(=O)COCCOCCNC(=O)CC[C@H](NC(=O)CCCCCCCCCCC)C(=O)O)C(=O)N[C@@H](Cc1ccccc1)C(=O)N[C@H](C(=O)N[C@H](C(=O)N[C@@H](CCC(=O)O)C(=O)NCC(=O)NCC(N)=O)C(C)C)C(C)C)[C@@H](C)CC)C(=O)O [compound 442] (H-H[Aib]EGS[αMeF]TSDK([AEEA-AEEA-γGlu-Lauroyl])SSYLEGEAA[αMeK]K([AEEA-AEEA-γGlu-Lauroyl])FIK([AEEA-AEEA-γGlu-Lauroyl])FVVEGG-NH2; N-terminus assumed) | 82 | 60.9 | 103 | – | 19.7 | – | – | – | – | – | – | – | 19.7 | – | – | – | –
6 | CC[C@H](C)[C@H](NC(=O)[C@](C)(Cc1ccccc1)NC(=O)[C@H](CCC(=O)O)NC(=O)[C@](C)(CCCCN)NC(=O)[C@H](C)NC(=O)[C@H](C)NC(=O)[C@H](CCC(=O)O)NC(=O)CNC(=O)[C@H](CCC(=O)O)NC(=O)[C@H](CC(C)C)NC(=O)[C@](C)(Cc1ccccc1)NC(=O)[C@H](CO)NC(=O)[C@](C)(CO)NC(=O)[C@@H](NC(=O)[C@H](CC(=O)O)NC(=O)[C@H](CO)NC(=O)[C@@H](NC(=O)[C@](C)(Cc1ccccc1)NC(=O)[C@H](CO)NC(=O)CNC(=O)[C@H](CCC(=O)O)NC(=O)C(C)(C)NC(=O)[C@@H](N)Cc1c[nH]cn1)[C@@H](C)O)C(C)C)C(=O)N[C@@H](C)C(=O)N[C@@](C)(Cc1ccccc1)C(=O)N[C@H](C(=O)N[C@H](C(=O)N[C@@H](CCCCNC(=O)CC[C@H](NC(=O)CC[C@H](NC(=O)CCCCCCCCCCCCCCCCC(=O)O)C(=O)O)C(=O)O)C(=O)NCC(=O)NCC(N)=O)C(C)C)C(C)C [compound 192] | – | – | – | – | – | – | – | 113 | – | – | – | – | – | 170 | 60 | ≥ 27 | ≥ 27
